Experimental data reported in patent US12440496B2, “Natriuretic peptide receptor a agonists useful for the treatment of cardiometabolic diseases, kidney disease and diabetes” (Merck Sharp & Dohme LLC, priority 2019, dated 2025).

What follows are molecules tested against T1, hNPRA (Homo sapiens, UniProt P16066) (assay: NPRA Functional Cell Assay (cGMP HTRF, NPRA HEK JumpIn stable cells)). Conditions: cGMP production, 1 hour at 37° C., 10-point dose response.
T1 construct: expressed in transfected cells
T1 sequence (P16066 33-1061): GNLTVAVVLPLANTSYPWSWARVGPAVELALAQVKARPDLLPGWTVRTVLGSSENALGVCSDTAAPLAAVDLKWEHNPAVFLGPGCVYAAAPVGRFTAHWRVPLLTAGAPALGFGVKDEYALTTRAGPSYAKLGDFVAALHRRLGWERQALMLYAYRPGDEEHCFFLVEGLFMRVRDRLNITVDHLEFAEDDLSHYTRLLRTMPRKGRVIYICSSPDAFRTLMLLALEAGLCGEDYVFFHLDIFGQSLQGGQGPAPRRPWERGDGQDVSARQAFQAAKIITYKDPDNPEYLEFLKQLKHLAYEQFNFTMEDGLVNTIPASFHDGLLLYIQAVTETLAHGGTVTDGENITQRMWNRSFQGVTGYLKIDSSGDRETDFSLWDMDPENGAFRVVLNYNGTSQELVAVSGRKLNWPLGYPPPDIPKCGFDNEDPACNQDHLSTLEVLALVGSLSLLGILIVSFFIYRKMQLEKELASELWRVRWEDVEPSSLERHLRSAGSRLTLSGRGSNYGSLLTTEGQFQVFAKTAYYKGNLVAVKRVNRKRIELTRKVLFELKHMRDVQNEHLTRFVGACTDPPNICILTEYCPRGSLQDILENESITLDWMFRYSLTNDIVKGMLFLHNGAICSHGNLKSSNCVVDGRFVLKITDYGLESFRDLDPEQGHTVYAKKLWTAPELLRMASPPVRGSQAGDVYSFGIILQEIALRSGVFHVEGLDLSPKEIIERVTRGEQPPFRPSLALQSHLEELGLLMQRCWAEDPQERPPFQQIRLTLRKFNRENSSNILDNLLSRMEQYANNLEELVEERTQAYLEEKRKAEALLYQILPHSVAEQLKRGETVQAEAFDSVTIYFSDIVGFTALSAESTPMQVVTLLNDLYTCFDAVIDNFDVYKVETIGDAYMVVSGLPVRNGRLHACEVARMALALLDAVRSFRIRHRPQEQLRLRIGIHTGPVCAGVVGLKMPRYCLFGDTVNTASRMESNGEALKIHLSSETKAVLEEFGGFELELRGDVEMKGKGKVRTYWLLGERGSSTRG
Format: cell-based
Excerpt: NPRA Functional Cell Assay
Assay Buffer components HEPES and Opti-MEM® I Reduced-Serum with Glutamine (no phenol red) were from Gibco/Invitrogen (Thermo Fisher Scientific, Waltham, MA USA). 3-Isobutyl-1-methylxanthine (IBMX) and 4-(3-Butoxy-4-methoxybenzyl) imidazolidin-2-one (RO20) were obtained from Sigma-Aldrich (St. Louis, MO, USA). DPBS (Dulbecco's phosphate-buffered saline) without Ca2+ and Mg2+ was purchased from GE Healthcare Bio-Sciences (Pittsburgh, PA, USA). 384 well white Optiplates were from Perkin Elmer (Atlantic Highlands, NJ, USA). Human ANP (Atrial Natriuretic Peptide) (1-28) was purchased from Sigma-Aldrich (Catalog #A1663) and rat ANP (1-28) from Bachem (Torrance, CA, USA) (Catalog #H2100). Human-BNP (Human-Brain Natriuretic Peptide) (1-32 AA) was purchased from American Peptide Company (Sunnyvale, CA, USA) (product No. 14-1-90). cGMP kits were purchased from Cisbio. The assay ready frozen (ARF) Human/rat/dog NPRA HEK JumpIn Stable frozen cells (low passage number 5-11) were prepared in-house.
Test compounds were titrated in DMSO in a 10-point dose response in a separate step followed by a 100-fold dilution into the reaction. Positive response for each assay was determined using 10 nM rat-ANP peptide (rat cells) or 50 nM h-ANP peptide (human and dog cells).
Cells were thawed, washed with DPBS and resuspended in assay buffer (Opti-MEM+Glutamine, phenol red free media, 10 mM HEPES, 100 uM IBMX and 100 uM RO20) that was warmed to 37° C. Cells were then transferred to microplates via a Microplate Combi dispenser at a density of 1500, 400 and 1200 cells/well for human, rat and dog cells respectively, followed by acoustic transfer (Echo) of compound.
(§1) Compounds and cells were incubated at 37° C. with 5% CO2 for 1 hour, after which the cells were lysed and cGMP was captured using a CisBio cGMP HTRF assay kit. The TRF signal was measured with an Envision plate reader (emission set to 615 and 665 nm) after 1 hour incubation at ambient temperature. The TRF signal was converted to [cGMP] through the use of a cGMP calibration curve on each microplate. EC50's were generated from the resulting dose response curves by use of a 4 parameter logistic algorithm.
Assay Buffer components HEPES and Opti-MEM® I Reduced-Serum with Glutamine (no phenol red) were from Gibco/Invitrogen. 3-Isobutyl-1-methylxanthine (IBMX) and 4-(3-Butoxy-4-methoxybenzyl) imidazolidin-2-one (RO20) were obtained from Sigma. DPBS (Dulbecco's phosphate-buffered saline) without Ca2+ and Mg2+ was purchased from GE Healthcare Bio-Sciences (Pittsburgh, PA, USA). 384 well white Optiplates were from Perkin Elmer (Atlantic Highlands, NJ, USA). Human ANP (1-28) was purchased from Sigma (A1663) and rat ANP (1-28) from Bachem (H2100). Human-BNP (1-32 AA) was purchased from American Peptide Company (Sunnyvale, CA, USA) (product No. 14-1-90). cGMP kits were purchased from Cisbio (Bedford, MA, USA). The assay ready frozen (ARF) Human/rat/dog NPRA HEK JumpIn Stable frozen cells (low passage number 5-11) were prepared in-house.
as §1, with “Envision®” for “Envision”, “reader (Perkin Elmer)” for “reader”
hNPRA EC50 (nM) were determined for the compounds of Example 1 through Example 273 and are reported in the Experimental section of this application.

Point of comparison: `CC(C)(C)[C@H]1CCc2nc3sc(C(=O)N[C@H](CCN4CCCC(c5cccnc5)C4)c4cccc(NS(C)(=O)=O)c4)cc3cc2C1` (mixture of isomers) [Example 18, ammonium; methylsulfonyl-[3-[rac-(1R)-3-[3-(3-pyridyl)-1-piperidyl]-1-[rac-(6S)-6-tert-butyl-5,6,7,8-tetrahydrothieno[2,3-b]quinoline-2-carbonyl]amino]propyl]phenyl]azanide], EC50 1.28 µM. Against it:
- CC(C)(C)[C@H]1CCc2nc3sc(C(=O)N[C@H](CCN4CCC(F)CC4)c4cccc(NS(C)(=O)=O)c4)cc3cc2C1 (racemic) [Example 14, ammonium; methylsulfonyl-[3-[rac-(1R)-3-(4-fluoro-1-piperidyl)-1-[[rac-(6S)-6-tert-butyl-5,6,7,8-tetrahydrothieno[2,3-b]quinoline-2-carbonyl]amino]propyl]phenyl] azanide] — 1.5-fold lower, 0.834 µM
- CC(C)(C)[C@H]1CCc2nc3sc(C(=O)N[C@H](CCNC4(CO)CCC4)c4cccc(NS(C)(=O)=O)c4)cc3cc2C1 (racemic) [Example 15, ammonium; methylsulfonyl-1-[3-[rac-(1R)-3-[[1-(hydroxymethyl)cyclobutyl]amino]-1-[[rac-(6S)-6-tert-butyl-5,6,7,8-tetrahydrothieno[2,3-b]quinoline-2-carbonyl]amino]propyl]phenyl] azanide] — within 1.5-fold, 0.942 µM
- CC1(O)CN(CC[C@@H](NC(=O)c2cc3cc4c(nc3s2)CC[C@H](C(C)(C)C)C4)c2cccc(NS(C)(=O)=O)c2)C1 (racemic) [Example 16, ammonium; methylsulfonyl-[3-[rac-(1R)-3-(3-hydroxy-3-methyl-azetidin-1-yl)-1-[[rac-(6S)-6-tert-butyl-5,6,7,8-tetrahydrothieno[2,3-b]quinoline-2-carbonyl]amino]propyl]phenyl] azanide] — within 1.5-fold, 1.12 µM
- CC(C)(C)[C@H]1CCc2nc3sc(C(=O)N[C@H](CCN4CCC(n5ccnc5)CC4)c4cccc(NS(C)(=O)=O)c4)cc3cc2C1 (racemic) [Example 17, ammonium; methylsulfonyl-[3-[rac-(1R)-3-(4-imidazol-1-y1-1-piperidy1)-1-[[rac-(6S)-6-tert-butyl-5,6,7,8-tetrahydrothieno[2,3-b]quinoline-2-carbonyl]amino]propyl]phenyl]azanide] — within 1.5-fold, 1.26 µM
- CC(C)(C)[C@H]1CCc2nc3sc(C(=O)N[C@H](CCN4CCCC5(CCNC5=O)C4)c4cccc(NS(C)(=O)=O)c4)cc3cc2C1 (mixture of isomers) [Example 19, ammonium; methylsulfonyl-[3-[rac-(1R)-3-(1-oxo-2,9-diazaspiro[4.5]decan-9-y1)-1-[[rac-(6S)-6-tert-butyl-5,6,7,8-tetrahydrothieno[2,3-b]quinoline-2-carbonyl]amino]propyl]phenyl]azanide] — within 1.5-fold, 1.58 µM
- CC(C)(C)[C@H]1CCc2nc3sc(C(=O)N[C@H](CCN4CCC4)c4cccc(NS(C)(=O)=O)c4)cc3cc2C1 (racemic) [Example 20, ammonium; methylsulfonyl-[3-[rac-(1R)-3-(azetidin-1-yl)-1-[[rac-(6S)-6-tert-butyl-5,6,7,8-tetrahydrothieno[2,3-b]quinoline-2-carbonyl]amino]propyl]phenyl]azanide] — within 1.5-fold, 1.65 µM
- CC(C)(C)[C@H]1CCc2nc3sc(C(=O)N[C@H](CCNC4COC4)c4cccc(NS(C)(=O)=O)c4)cc3cc2C1 (racemic) [Example 21, ammonium; methylsulfonyl-[3-[rac-(1R)-3-(oxetan-3-ylamino)-1-[[rac-(6S)-6-tert-butyl-5,6,7,8-tetrahydrothieno[2,3-b]quinoline-2-carbonyl]amino]propyl]phenyl]azanide] — within 1.5-fold, 1.77 µM
- CC(C)(C)[C@H]1CCc2nc3sc(C(=O)N[C@H](CCN4CC(c5ccccn5)C4)c4cccc(NS(C)(=O)=O)c4)cc3cc2C1 (racemic) [Example 22, ammonium; methylsulfonyl-[3-[rac-(1R)-3-[3-(2-pyridyl)azetidin-1-y1]-1-[[rac-(6S)-6-tert-butyl-5,6,7,8-tetrahydrothieno[2,3-b]quinoline-2-carbonyl]amino]propyl]phenyl] azanide] — within 1.5-fold, 1.79 µM
